Values of other authors, collected in US20250065012A1, “DIRECTIONAL AND TEMPORAL RELEASE OF DRUGS FROM MEDICAL DEVICES” (NANO THERAPEUTICS PRIVATE LIMITED, priority 2022, published 2025).
Where a name gives a salt, the structure may show the parent alone.

Tests used:
[1] = test system: platelet aggregation; conditions: after systemic administration
[2] = injected intravenously

| increase in bleeding time [2] | increase in clotting time [2] | SMILES | platelet aggregation inhibition [1] |
| --- | --- | --- | --- |
|  |  | CCCCS(=O)(=O)N[C@@H](Cc1ccc(OCCCCC2CCNCC2)cc1)C(=O)O [Tirofiban] | up to 96% |
| 3-4 fold | 3-4 fold | CCCCS(=O)(=O)N[C@@H](Cc1ccc(OCCCCC2CCNCC2)cc1)C(=O)O [Tirofiban HCl] |  |
